From patent US20190071571A1, “COLORING COMPOSITION, DICHROIC DYE COMPOUND, LIGHT ABSORPTION ANISOTROPIC FILM, LAMINATE, AND IMAGE DISPLAY DEVICE” (FUJIFILM Corporation, priority 2016, published 2019)

Assay: Solubility of dichroic dye compound in cyclopentanone (absorbance method)
Assay type: physicochemical
Conditions: for Solubility (evaluation grade) / Solubility (wt %): in cyclopentanone; for solubility (in words): solubility to solvent, comparison between examples
Protocol: The solubilities of the dichroic dye compounds D1 and D4 to D24 used in the examples and the comparative examples were measured as follows.
0.1 g of each dichroic dye compound was added to 2 g of cyclopentanone, and dissolved with ultrasonic waves. Then, 0.2 g of the solution portion was weighed and diluted with 45 g of cyclopentanone. The absorption spectrum of the cyclopentanone solution was measured to obtain an absorbance A (for solubility measurement).
Separately, 0.1 mg of each dichroic dye compound was completely dissolved in 100 g of cyclopentanone, and the absorption spectrum was measured to obtain an absorbance B (having a known concentration).
From data of the obtained two absorbances, the solubility was calculated by the following formula.
The evaluation standards are as follows.
A: The solubility is 2.5 mass % or greater.
B: The solubility is 1.0 mass % or greater and ess than 2.5 mass %.
C: The solubility is less than 1.0 mass %.

Row | Solubility (wt %) | solubility (in words) | SMILES | Solubility (evaluation grade)
1 | >5 |  | C=CC(=O)OCCCCOc1ccc(N=Nc2ccc(N=Nc3ccc(N=Nc4ccc(OCCCCOC(=O)C=C)c(C(F)(F)F)c4)cc3)cc2)cc1 [D19] | A (The solubility is 2.5 mass % or greater.)
2 | >5 |  | C=CC(=O)OCCCCOc1ccc(N=Nc2ccc(N=Nc3ccc(N=Nc4ccc(OCCCCOC(=O)C=C)cc4OCCOC)cc3C)cc2)c(OCCOC)c1 [D20] | A (The solubility is 2.5 mass % or greater.)
3 | 2.1 |  | C=CC(=O)OCCCCOc1ccc(N=Nc2ccc(N=Nc3ccc(N=Nc4ccc(N=Nc5ccc(OCCCCOC(=O)C=C)cc5)c(OC)c4)c(OC)c3)cc2)cc1 [D18] | B (The solubility is 1.0 mass % or greater and ess than 2.5 mass %.)
4 | 1.5 |  | C=CC(=O)OCCCCOc1ccc(N=Nc2ccc(N=Nc3ccc(N=Nc4ccc(OCCCCOC(=O)C=C)cc4O)cc3)c(C)c2)cc1 [D21] | B (The solubility is 1.0 mass % or greater and ess than 2.5 mass %.)
5 | 1.2 |  | C=CC(=O)OCCCCOc1ccc(N=Nc2ccc(N=Nc3ccc(N=Nc4ccc(N=Nc5ccc(N=Nc6ccc(OCCCCOC(=O)C=C)c(C(F)(F)F)c6)c(C)c5)cc4)c(C)c3)cc2)cc1C(F)(F)F [D23] | B (The solubility is 1.0 mass % or greater and ess than 2.5 mass %.)
6 | 0.3 |  | C=CC(=O)OCCCCOc1ccc(N=Nc2ccc(N=Nc3ccc(N=Nc4ccc(N=Nc5ccc(OCCCCOC(=O)C=C)cc5)cc4)cc3)cc2)cc1 [D22, reference compound] | C (The solubility is less than 1.0 mass %.)
7 | <0.1 |  | CCCCc1ccc(N=Nc2ccc(N=Nc3c(C)cc(N=Nc4cc(C)c(N=Nc5ccc(N=Nc6ccc(CCCC)cc6)cc5)c(C)c4)cc3C)cc2)cc1 [D24, reference compound] | C (The solubility is less than 1.0 mass %.)

The remaining lines, values behind:

Row | SMILES | Solubility (wt %) | solubility (in words) | Solubility (evaluation grade)
8 | C=CC(=O)OCCCCOc1ccc(/N=N/c2ccc(/N=N/c3ccc(/N=N/c4ccc(OCCCCCCC)cc4)cc3)c(C)c2)cc1 [D10] | 2.8 |  | A (The solubility is 2.5 mass % or greater.)
9 | C=CC(=O)OCCCCOc1ccc(/N=N/c2ccc(/N=N/c3ccc(OCCCCOC(=O)C=C)c(C)c3)cc2)cc1 [D5] | 6.8 |  | A (The solubility is 2.5 mass % or greater.)
10 | C=CC(=O)OCCCCOc1ccc(N=Nc2ccc(N=Nc3ccc(N=Nc4ccc(OCCCCOC(=O)C=C)cc4)c(C)c3)c(OC)c2)cc1 [D17] | 3.2 |  | A (The solubility is 2.5 mass % or greater.)
11 | C=CC(=O)OCCCCOc1ccc(/N=N/c2ccc(/N=N/c3ccc(/N=N/c4ccc(OCCCCOC(=O)C=C)cc4)cc3)cc2)cc1 [D12, reference compound] | 0.8 | the solubility to a solvent deteriorates | C (The solubility is less than 1.0 mass %.)
12 | C=CC(=O)OCCCCOc1ccc(/N=N/c2ccc(/N=N/c3ccc(OCCCCOC(=O)C=C)cc3)cc2)cc1 [D4] | 5.7 |  | A (The solubility is 2.5 mass % or greater.)
13 | Cc1cc(/N=N/c2ccc(OCCCCOCC3(C)COC3)cc2)ccc1/N=N/c1ccc(/N=N/c2ccc(OCCCCOCC3(C)COC3)cc2)cc1 [D11] | 3.3 |  | A (The solubility is 2.5 mass % or greater.)
14 | C=CC(=O)OCCOc1ccc(/N=N/c2ccc(/N=N/c3ccc(/N=N/c4ccc(OCCOC(=O)C=C)cc4)cc3C)cc2)cc1 [D9] | 4.3 |  | A (The solubility is 2.5 mass % or greater.)
15 | C=CC(=O)OCCCCOc1ccc(/N=N/c2ccc(/N=N/c3ccc(/N=N/c4ccc(OCCCCOC(=O)C=C)cc4)c4ccccc34)cc2)cc1 [D13, reference compound] | 1.5 |  | B (The solubility is 1.0 mass % or greater and ess than 2.5 mass %.)
16 | C=CC(=O)OCCCCOc1ccc(N=Nc2ccc(N=Nc3ccc(N=Nc4ccc(OCCCCOC(=O)C=C)cc4)c(OC)c3)c(OC)c2)cc1 [D14] | 3.1 |  | A (The solubility is 2.5 mass % or greater.)
17 | C=CC(=O)OCCCCOc1ccc(N=Nc2ccc(N=Nc3ccc(N=Nc4ccc(OCCCCOC(=O)C=C)c(OC)c4)cc3C)cc2)cc1OC [D15] | 4.3 |  | A (The solubility is 2.5 mass % or greater.)
18 | C=CC(=O)OCCCCOc1ccc(/N=N/c2ccc(/N=N/c3ccc(/N=N/c4ccc(OCCCCOC(=O)C=C)cc4)cc3C)cc2)cc1 [D1] | 4.5 | more excellent solubility | A (The solubility is 2.5 mass % or greater.)
19 | C=CC(=O)OCCCCOc1ccc(/N=N/c2ccc(/N=N/c3ccc(OCCCCOC(=O)C=C)c(C(F)(F)F)c3)cc2)cc1 [D7] | 42 | more excellent solubility | A (The solubility is 2.5 mass % or greater.)
20 | C=CC(=O)OCCCCOc1ccc(N=Nc2ccc(N=Nc3ccc(N=Nc4ccc(OCCCCOC(=O)C=C)cc4OC)cc3C)cc2)c(OC)c1 [D16] | 5.0 | more excellent solubility | A (The solubility is 2.5 mass % or greater.)
21 | C=CC(=O)OCCCCOc1ccc(/N=N/c2ccc(/N=N/c3ccc(/N=N/c4ccc(OCCCCOC(=O)C=C)cc4)cc3OCCOCCOCCOC)cc2)cc1 [D8] | 4.8 | more excellent solubility | A (The solubility is 2.5 mass % or greater.)
22 | C=CC(=O)OCCCCOc1ccc(/N=N/c2ccc(/N=N/c3ccc(OCCCCOC(=O)C=C)cc3C)cc2)cc1 [D6] | 18 | more excellent solubility | A (The solubility is 2.5 mass % or greater.)
